Reference: publication PMC9315260, “Diarylamine-Guided Carboxamide Derivatives: Synthesis, Biological Evaluation, and Potential Mechanism of Action” (Frontiers in Chemistry, 2022)

Assays:
PIM1 = PIM1 (Homo sapiens, UniProt P11309); experiment: ADP-GLO kinase inhibitory assay, PIM1; type: biochemical
Protocol: (§1) Based on the aforementioned results for the potential mechanism of action, the kinase inhibitory profile of compounds C6 and C11 were screened at two dose concentration of 10 and 1 µM over a panel of 15 kinases, and the kinase inhibitory activities are listed in supporting information (Supplementary Table S1).
(§2) The kinase inhibitory profile of compounds C6 and C11 were screened at two dose concentration of 10 and 1 µM over a panel of 15 kinases, and each assay was repeated twice. All the inhibitory assays were carried out through kinase profiling services provided by HY Biotech (Chinese), in which ADP-GLO kinase assays were used.
as §2, with “10 µM” for “10”

[1] = system: HepG2 (human hepatocellular liver carcinoma cell line); experiment: MTT in vitro cytotoxicity assay, HepG2; type: cell-based; details: for IC50: HepG2, Table 3, MTT, mean ± S.D.; for inhibition at 100 µM: HepG2, at 100 µM, read-out: Cell growth inhibition (%) HepG2
Protocol: The lead molecules A2 and all newly prepared diarylamine derivatives B1-13 and C1-11 were evaluated for their in vitro cytotoxic effects against SGC-7901, A875, HepG2 and MARC145 cell lines by the classical MTT [3-(4,5-dimethylthiazol-2-yl)-2,5-diphenyl tetrazolium bromide] assay ([Alley et al., 1988]; [Ke et al., 2012]; [Shi et al., 2012]; [Yu et al., 2015]; [Ke et al., 2019]; [Xu et al., 2019]; [Huang et al., 2021]) using 5-FU (5-Fluorouracil) as a control.
The cytotoxicity of target compounds was determined with MTT assay ([Alley et al., 1988]; [Ke et al., 2012]; [Shi et al., 2012]; [Yu et al., 2015]; [Ke et al., 2019]; [Xu et al., 2019]; [Huang et al., 2021]). SGC-7901, A875, HepG2 and MARC145 cell lines were obtained from Hubei Biopesticide Engineering Research Centre. All data of the experiment were analyzed with SPSS software, and all assay were performed in triplicate on three independent experiments, and measurement data were expressed as the mean ± S.D.
The in vitro cytotoxicity of the synthesized compounds against different cell lines (SGC-7901, A875, HepG2 and MARC145) was measured with MTT assay. All the data of the experiment were analyzed with SPSS software, and the 50% inhibitory concentrations (IC50) of each compound for the different cell lines were determined. A control was run for each test, and all assays were performed in triplicate on three independent experiments, and measurement data were expressed as the mean ± S.D.

MAPK1 = MAPK1 (Homo sapiens, UniProt P28482); experiment: ADP-GLO kinase inhibitory assay, MAPK1; type: biochemical; details: for inhibition of MAPK1, in words: at 1 μM
Protocol: as §1, §2
as §2, with “10 µM” for “10”

DAPK1 = DAPK1 (Homo sapiens, UniProt P53355); experiment: ADP-GLO kinase inhibitory assay, DAPK1; type: biochemical
Protocol: as §1, §2
as §2, with “10 µM” for “10”

CHK1 = molecular target: T1, CHK1 (Homo sapiens, UniProt O14757); experiment: ADP-GLO kinase inhibitory assay, CHK1; type: biochemical
T1 sequence (O14757 1-476): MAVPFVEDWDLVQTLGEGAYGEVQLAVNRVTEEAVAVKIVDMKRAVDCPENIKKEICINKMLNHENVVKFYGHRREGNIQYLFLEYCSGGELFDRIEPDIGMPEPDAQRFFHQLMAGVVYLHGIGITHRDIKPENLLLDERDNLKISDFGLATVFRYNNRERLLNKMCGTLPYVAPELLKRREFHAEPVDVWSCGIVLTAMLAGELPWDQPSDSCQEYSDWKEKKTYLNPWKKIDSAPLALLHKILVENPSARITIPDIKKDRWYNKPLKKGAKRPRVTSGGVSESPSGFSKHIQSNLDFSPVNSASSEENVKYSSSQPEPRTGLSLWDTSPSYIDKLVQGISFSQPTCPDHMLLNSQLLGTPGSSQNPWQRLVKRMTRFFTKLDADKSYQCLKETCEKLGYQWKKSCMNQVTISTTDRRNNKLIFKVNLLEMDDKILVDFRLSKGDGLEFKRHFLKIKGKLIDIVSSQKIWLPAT
Protocol: as §1, §2
as §2, with “10 µM” for “10”

CDK2/A2 = CDK2/A2 (Homo sapiens, UniProt P24941); experiment: ADP-GLO kinase inhibitory assay, CDK2/A2; type: biochemical; details: for inhibition of CDK2/A2, in words: at 1 μM
Protocol: as §1, §2
as §2, with “10 µM” for “10”

PAK3 = PAK3 (Homo sapiens, UniProt O75914); experiment: ADP-GLO kinase inhibitory assay, PAK3; type: biochemical
Protocol: as §1, §2
as §2, with “10 µM” for “10”

A875 cells = experiment: Annexin V-FITC/PI dual staining flow cytometry; type: cell-based, human; details: for apoptotic rate: 24 h, 2×IC50 concentration, FITC(+)PI(−); for apoptosis induction, in words: 24 h treatment
Protocol: Apoptosis induction is one of the important modes of action for antitumor drugs.
Quantitative analysis of apoptotic and necrotic cell death induced by potential molecules was investigated using Annexin V-FITC/PI dual staining assay ([Yu et al., 2015]; [Huang et al., 2021]).
Quantitative analysis of apoptotic and necrotic cell death induced by the test compounds was performed by Annexin V-FITC apoptosis detection kit according to the manufacturer’s instructions (Abcam). Briefly, 2×10^5 A875 cells were seeded in 6-well plates and grown overnight. […] Cells treated with 0.1% DMSO were served as solvent control. Following treatment cells were harvested, washed twice with ice-cold PBS and resuspended in binding buffer. Then the cells were stained by adding 5 µl of Annexin V-FITC and 5 µl of propidium iodide, sit for 5 min at room temperature in the dark and analyzed by flow cytometry (Beckman coulter FC500).

Chain of DAPK1 (P53355 whole entry, species assumed): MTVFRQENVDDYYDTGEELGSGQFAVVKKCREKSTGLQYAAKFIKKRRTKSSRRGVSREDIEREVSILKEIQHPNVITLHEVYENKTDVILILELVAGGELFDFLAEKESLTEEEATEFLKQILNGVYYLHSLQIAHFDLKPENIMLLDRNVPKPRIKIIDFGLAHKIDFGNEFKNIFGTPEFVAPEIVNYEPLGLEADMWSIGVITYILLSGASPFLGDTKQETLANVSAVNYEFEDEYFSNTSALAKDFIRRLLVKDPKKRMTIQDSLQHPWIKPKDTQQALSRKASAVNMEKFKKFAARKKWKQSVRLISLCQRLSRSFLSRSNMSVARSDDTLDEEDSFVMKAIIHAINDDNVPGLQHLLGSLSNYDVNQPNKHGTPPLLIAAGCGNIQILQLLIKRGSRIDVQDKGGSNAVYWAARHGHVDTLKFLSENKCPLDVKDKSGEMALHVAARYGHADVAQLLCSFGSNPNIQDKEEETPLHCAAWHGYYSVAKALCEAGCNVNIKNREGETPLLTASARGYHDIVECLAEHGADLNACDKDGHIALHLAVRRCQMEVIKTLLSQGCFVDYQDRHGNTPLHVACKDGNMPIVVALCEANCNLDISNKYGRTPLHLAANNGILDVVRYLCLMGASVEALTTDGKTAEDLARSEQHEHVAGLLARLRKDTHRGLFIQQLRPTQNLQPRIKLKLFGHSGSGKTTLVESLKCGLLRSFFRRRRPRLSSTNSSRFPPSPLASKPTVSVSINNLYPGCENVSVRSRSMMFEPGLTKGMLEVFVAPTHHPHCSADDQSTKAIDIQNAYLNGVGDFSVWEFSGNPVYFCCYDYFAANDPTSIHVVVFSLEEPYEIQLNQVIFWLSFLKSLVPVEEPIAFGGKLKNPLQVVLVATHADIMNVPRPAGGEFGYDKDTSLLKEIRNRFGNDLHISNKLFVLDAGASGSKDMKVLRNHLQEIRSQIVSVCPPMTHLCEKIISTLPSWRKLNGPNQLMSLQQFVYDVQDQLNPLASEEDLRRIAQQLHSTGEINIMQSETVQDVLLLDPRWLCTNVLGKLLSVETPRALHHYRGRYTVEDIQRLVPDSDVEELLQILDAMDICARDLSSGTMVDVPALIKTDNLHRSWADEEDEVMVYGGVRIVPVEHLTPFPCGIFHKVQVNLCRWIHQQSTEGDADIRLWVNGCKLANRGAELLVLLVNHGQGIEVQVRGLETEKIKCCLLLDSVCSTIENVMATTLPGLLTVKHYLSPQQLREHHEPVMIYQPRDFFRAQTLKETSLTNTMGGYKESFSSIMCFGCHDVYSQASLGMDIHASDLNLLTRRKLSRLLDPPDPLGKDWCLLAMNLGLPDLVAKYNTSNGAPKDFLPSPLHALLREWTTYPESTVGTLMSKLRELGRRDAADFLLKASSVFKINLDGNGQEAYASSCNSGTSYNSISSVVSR
Chain of PAK3 (O75914 whole entry, species assumed): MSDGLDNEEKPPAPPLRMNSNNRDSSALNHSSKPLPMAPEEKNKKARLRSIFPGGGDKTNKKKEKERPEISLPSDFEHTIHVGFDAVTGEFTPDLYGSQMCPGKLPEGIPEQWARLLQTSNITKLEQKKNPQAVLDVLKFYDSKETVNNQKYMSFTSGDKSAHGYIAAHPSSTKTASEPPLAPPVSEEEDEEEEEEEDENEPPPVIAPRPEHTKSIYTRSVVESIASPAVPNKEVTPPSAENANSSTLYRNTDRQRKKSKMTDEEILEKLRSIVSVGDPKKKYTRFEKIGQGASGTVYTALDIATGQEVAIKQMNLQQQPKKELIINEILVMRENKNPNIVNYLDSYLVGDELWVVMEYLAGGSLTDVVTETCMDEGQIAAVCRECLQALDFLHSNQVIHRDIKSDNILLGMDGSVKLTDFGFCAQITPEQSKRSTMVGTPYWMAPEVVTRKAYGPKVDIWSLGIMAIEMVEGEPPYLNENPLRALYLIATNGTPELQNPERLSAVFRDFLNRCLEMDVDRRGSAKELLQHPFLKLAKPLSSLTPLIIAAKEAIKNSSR
Chain of PIM1 (P11309 whole entry, species assumed): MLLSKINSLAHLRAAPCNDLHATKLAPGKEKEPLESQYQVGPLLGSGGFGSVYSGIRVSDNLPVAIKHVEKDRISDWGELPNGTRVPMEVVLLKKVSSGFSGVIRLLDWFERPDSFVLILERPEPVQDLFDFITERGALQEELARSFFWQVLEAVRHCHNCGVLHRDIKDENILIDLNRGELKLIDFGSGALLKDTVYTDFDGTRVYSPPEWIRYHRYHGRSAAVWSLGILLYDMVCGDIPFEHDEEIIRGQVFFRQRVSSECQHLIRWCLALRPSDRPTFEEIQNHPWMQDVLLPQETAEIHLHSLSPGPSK
Chain of MAPK1 (P28482 whole entry, species assumed): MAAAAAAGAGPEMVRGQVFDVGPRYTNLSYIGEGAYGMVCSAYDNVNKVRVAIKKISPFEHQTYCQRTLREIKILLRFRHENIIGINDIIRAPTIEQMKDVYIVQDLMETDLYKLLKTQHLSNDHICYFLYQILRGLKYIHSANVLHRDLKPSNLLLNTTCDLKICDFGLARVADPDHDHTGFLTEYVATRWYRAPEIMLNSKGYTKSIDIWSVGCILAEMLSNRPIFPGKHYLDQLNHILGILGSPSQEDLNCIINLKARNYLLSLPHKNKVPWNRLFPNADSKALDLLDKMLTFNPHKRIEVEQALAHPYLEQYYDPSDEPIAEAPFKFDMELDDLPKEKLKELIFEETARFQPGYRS

inhibition at 1 µM (PIM1) [%] | inhibition at 10 µM (PIM1) [%] | inhibition at 1 µM (MAPK1) [%] | inhibition at 10 µM (MAPK1) [%] | inhibition of MAPK1, in words (MAPK1) | inhibition at 1 µM (DAPK1) [%] | inhibition at 10 µM (DAPK1) [%] | inhibition at 1 µM (CHK1) [%] | inhibition at 10 µM (CHK1) [%] | inhibition at 1 µM (CDK2/A2) [%] | inhibition at 10 µM (CDK2/A2) [%] | inhibition of CDK2/A2, in words (CDK2/A2) | inhibition at 1 µM (PAK3) [%] | inhibition at 10 µM (PAK3) [%] | Structure (SMILES) | IC50 [1] [µM] | inhibition at 100 µM [1] [%] | apoptotic rate (A875 cells) [%] | apoptosis induction, in words (A875 cells)
12.8 | 15.8 | 28.8 | 17.6 | certain inhibitions | 8.48 | -7.18 | 10.2 | -0.18 | 23.4 | 15 | certain inhibitions | 10.1 | 1.34 | O=C(Nc1cccc(C(F)(F)F)c1)c1cccnc1Nc1cccc(C(F)(F)F)c1 [C6, N-(3-(Trifluoromethyl)phenyl)-2-((3-(trifluoromethyl)phenyl)amino)nicotinamide] | 9.99 ± 1.58 | 91.3 ± 3.7 | 12 | induced apoptotic changes
23.1 | 10.3 | 24.4 | 7.96 | some inhibitions | -2.25 | 6.49 | 19.5 | 3.66 | 26.8 | 16.7 | some inhibitions | 11.8 | 8.14 | O=C(Nc1ccc(Cl)nc1)c1cccnc1Nc1cccc(C(F)(F)F)c1 [C11, N-(6-Chloropyridin-3-yl)-2-((3-(trifluoromethyl)phenyl)amino)nicotinamide] | 10.2 ± 2.04 | 85.7 ± 2.4 | 27 | induced apoptotic changes
